We go through 59 compounds from ChEMBL document CHEMBL1145549, “Constrained NBMPR analogue synthesis, pharmacophore mapping and 3D-QSAR modeling of equilibrative nucleoside transporter 1 (ENT1) inhibitory activity” (Bioorg Med Chem, 2008).

The target in this assay is T1, Equilibrative nucleoside transporter 1 (Homo sapiens, UniProt Q99808).
T1 sequence (Q99808 whole entry): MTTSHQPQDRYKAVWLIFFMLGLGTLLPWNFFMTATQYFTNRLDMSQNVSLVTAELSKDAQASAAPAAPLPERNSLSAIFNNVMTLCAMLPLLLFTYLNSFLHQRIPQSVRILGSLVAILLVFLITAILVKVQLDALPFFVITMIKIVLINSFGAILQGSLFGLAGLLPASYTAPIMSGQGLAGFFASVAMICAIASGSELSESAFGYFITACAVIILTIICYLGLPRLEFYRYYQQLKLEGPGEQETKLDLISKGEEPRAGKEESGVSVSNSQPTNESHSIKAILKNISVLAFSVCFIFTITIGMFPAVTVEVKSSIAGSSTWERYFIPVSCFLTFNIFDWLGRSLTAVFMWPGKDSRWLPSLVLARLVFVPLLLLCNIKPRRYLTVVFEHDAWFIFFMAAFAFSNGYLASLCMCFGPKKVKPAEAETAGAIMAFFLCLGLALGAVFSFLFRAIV
In words: Binding affinity to ENT1 transporter.
As a reminder, the IC50 is the concentration that inhibits the measured activity by half. A low value points to higher potency. With `Cn1cnc([N+](=O)[O-])c1Sc1nc(N)nc2c1ncn2[C@@H]1O[C@H](CO)[C@@H](O)[C@H]1O`, the IC50 is 575 µM.

The compound `CCCCn1cnc2c(SCc3ccccn3)nc(N)nc21` showed an IC50 of 52.5 µM.

Consider `Nc1nc(SCc2ccccc2)c2ncn([C@@H]3O[C@H](CO)[C@@H](O)[C@H]3O)c2n1`, for which the IC50 is 5.25 µM.

For `OC[C@H]1O[C@@H](n2cnc3c(NCc4cccs4)ncnc32)[C@H](O)[C@@H]1O`, the IC50 was 17.8 µM.

Turning to `OC[C@H]1O[C@@H](n2cnc3c(CSc4ccccc4Br)ncnc32)[C@H](O)[C@@H]1O`, the IC50 is 2.4 µM.

For `OC[C@H]1O[C@@H](n2cnc3c(SC4CCCCC4)ncnc32)[C@H](O)[C@@H]1O`, the half-inhibitory concentration (IC50) is 6.31 µM.

Compound `OC[C@H]1O[C@@H](n2cnc3c(CSc4ccccc4F)ncnc32)[C@H](O)[C@@H]1O` showed a half-inhibitory concentration (IC50) of 0.355 µM.

`CC(C)Sc1nc(N)nc2c1ncn2[C@@H]1O[C@H](CO)[C@@H](O)[C@H]1O`: the IC50 was 191 µM.

`O=[N+]([O-])c1ccc2c(c1)CCN(c1ncnc3c1ncn3[C@@H]1O[C@H](CO)[C@@H](O)[C@H]1O)C2`: the IC50 was 0.182 µM.

In turn, `CSc1ncnc2c1c(Br)cn2[C@@H]1O[C@H](CO)[C@@H](O)[C@H]1O` showed an IC50 of 115 µM.

For `C[C@H]1O[C@@H](n2cnc3c(NCc4ccc([N+](=O)[O-])cc4)ncnc32)[C@H](O)[C@@H]1O`, the IC50 was 0.0219 µM.

Compound `CC(C)c1ccc(CSc2ncnc3c2ncn3[C@@H]2O[C@H](CO)[C@@H](O)[C@H]2O)cc1` gave a half-inhibitory concentration (IC50) of 4.79 µM.

The compound `Cc1ccc(CSc2ncnc3c2ncn3[C@@H]2O[C@H](CO)[C@@H](O)[C@H]2O)cc1` gave a concentration for half-maximal inhibition (IC50) of 0.457 µM.

As for `Nc1nc(SCc2ccc(F)cc2)c2ncn([C@@H]3O[C@H](CO)[C@@H](O)[C@H]3O)c2n1`, the IC50 is 1.15 µM.

For the compound `CCC(C)Sc1nc(N)nc2c1ncn2[C@@H]1O[C@H](CO)[C@@H](O)[C@H]1O` (some centres undefined), the 50% inhibitory concentration (IC50) was 63.1 µM.

`OC[C@H]1O[C@@H](n2cnc3c(CSc4ccccc4Cl)ncnc32)[C@H](O)[C@@H]1O` had an IC50 of 1.78 µM.

On to `Cc1cc(C)c(SCc2ncnc3c2ncn3[C@@H]2O[C@H](CO)[C@@H](O)[C@H]2O)c(C)c1`, for which the IC50 was 33.1 µM.

For the compound `OC[C@H]1O[C@@H](n2cnc3c(Sc4ccccc4)ncnc32)[C@H](O)[C@@H]1O`, the IC50 is 91.2 µM.

The compound `OC[C@H]1O[C@@H](n2cnc3c(CSc4cccc(I)c4)ncnc32)[C@H](O)[C@@H]1O` showed an IC50 of 0.245 µM.

On to `CCCCSc1nc(N)nc2c1ncn2[C@@H]1O[C@H](CO)[C@@H](O)[C@H]1O`, for which the IC50 is 12 µM.

With `O=[N+]([O-])c1cccc2c1CCN(c1ncnc3c1ncn3[C@@H]1O[C@H](CO)[C@@H](O)[C@H]1O)C2`, the 50% inhibitory concentration (IC50) is 3.02 µM.

The compound `O=[N+]([O-])c1cccc(SCc2ncnc3c2ncn3[C@@H]2O[C@H](CO)[C@@H](O)[C@H]2O)c1` had an IC50 of 0.00479 µM.

`Cc1ccc2ccccc2c1CSc1ncnc2c1ncn2[C@@H]1O[C@H](CO)[C@@H](O)[C@H]1O` had a concentration for half-maximal inhibition (IC50) of 115 µM.

On to `CC(=O)Nc1ccc(CNc2ncnc3c2ncn3[C@@H]2O[C@H](CO)[C@@H](O)[C@H]2O)cc1`, for which the half-maximal inhibitory concentration (IC50) was 0.182 µM.

`O=[N+]([O-])c1ccc(CNc2ncnc3c2ncn3[C@@H]2O[C@H](CO)[C@@H](O)[C@@H]2O)cc1` had an IC50 of 0.0316 µM.

Turning to `CCCn1cnc2c(SCc3ccccn3)nc(N)nc21`, the concentration for half-maximal inhibition (IC50) was 91.2 µM.

`OC[C@H]1O[C@@H](n2cnc3c(CSc4ccc(I)cc4)ncnc32)[C@H](O)[C@@H]1O` had an IC50 of 0.0692 µM.

Compound `O=[N+]([O-])c1ccc2c(c1)CN(c1ncnc3c1ncn3[C@@H]1O[C@H](CO)[C@@H](O)[C@H]1O)CC2` had an IC50 of 0.0055 µM.

The compound `CCCCn1cnc2c(SC(C)C)nc(N)nc21` showed an IC50 of 120 µM.

`OC[C@H]1O[C@@H](n2cnc3c(N4CCc5ccccc5C4)ncnc32)[C@H](O)[C@@H]1O` had an IC50 of 1.82 µM.

As for `CCCSc1nc(N)nc2c1ncn2CC(C)C`, the IC50 was 63.1 µM.

As to `CCCn1cnc2c(SC(C)C)nc(N)nc21`, the concentration for half-maximal inhibition (IC50) is 145 µM.

On to `OC[C@H]1O[C@@H](n2cnc3c(CSc4ccc(Cl)cc4Cl)ncnc32)[C@H](O)[C@@H]1O`, for which the half-maximal inhibitory concentration (IC50) is 0.0776 µM.

Take `CCCCCNc1ncnc2c1ncn2[C@@H]1O[C@H](CO)[C@@H](O)[C@H]1O`: the 50% inhibitory concentration (IC50) was 13.5 µM.

Turning to `CCCCn1cnc2c(SC)nc(N)nc21`, the IC50 was 219 µM.

The compound `CCSc1nc(N)nc2c1ncn2[C@@H]1O[C@H](CO)[C@@H](O)[C@H]1O` showed a half-inhibitory concentration (IC50) of 162 µM.

`O=[N+]([O-])c1ccc(CNc2ncnc3c2ncn3[C@@H]2O[C@H](CCl)[C@@H](O)[C@H]2O)cc1` showed a half-inhibitory concentration (IC50) of 0.107 µM.

As for `CCCSc1nc(N)nc2c1ncn2[C@@H]1O[C@H](CO)[C@@H](O)[C@H]1O`, the 50% inhibitory concentration (IC50) is 32.4 µM.

The compound `OC[C@H]1O[C@@H](n2cnc3c(SCCCc4ccccc4)ncnc32)[C@H](O)[C@@H]1O` showed an IC50 of 1.35 µM.

As for `OC[C@H]1O[C@@H](n2ccc3c(SCc4ccccc4)ncnc32)[C@H](O)[C@@H]1O`, the IC50 is 5.25 µM.

`Nc1nc(SCc2ccc(Br)cc2)c2ncn([C@@H]3O[C@H](CO)[C@@H](O)[C@H]3O)c2n1` showed an IC50 of 0.813 µM.

As to `OC[C@H]1O[C@@H](n2cnc3c(NCc4ccccc4)ncnc32)[C@H](O)[C@@H]1O` [N6-BENZYLADENOSINE], the IC50 was 10.7 µM.

For the compound `O=[N+]([O-])c1ccc(CNc2ncnc3c2ncn3[C@H]2C[C@H](O)[C@@H](CO)O2)cc1`, the IC50 is 0.0158 µM.

In the case of `CC(C)CCNc1ncnc2[nH]ncc12`, the IC50 is 234 µM.

On to `OC[C@H]1O[C@@H](n2cnc3c(CSc4ccc(Cl)c(Cl)c4)ncnc32)[C@H](O)[C@@H]1O`, for which the IC50 is 0.224 µM.

`OC[C@H]1O[C@@H](n2cnc3c(Nc4ccccc4)ncnc32)[C@H](O)[C@@H]1O` [N6-PHENYLADENOSINE] showed an IC50 of 32.4 µM.

`Nc1nc(SCc2cc([N+](=O)[O-])ccc2O)c2ncn([C@@H]3O[C@H](CO)[C@@H](O)[C@H]3O)c2n1`: the IC50 is 0.00275 µM.

Compound `N#Cc1ccc(SCc2ncnc3c2ncn3[C@@H]2O[C@H](CO)[C@@H](O)[C@H]2O)cc1` had a 50% inhibitory concentration (IC50) of 0.0813 µM.

For the compound `CC(C)(Sc1ncnc2c1ncn2[C@@H]1O[C@H](CO)[C@@H](O)[C@H]1O)c1ccccc1`, the IC50 was 21.4 µM.

`Cc1cccc(CSc2nc(N)nc3c2ncn3[C@@H]2O[C@H](CO)[C@@H](O)[C@H]2O)n1`: the IC50 was 11500 µM.

Regarding `Nc1nc(SCc2cccc(Br)c2)c2ncn([C@@H]3O[C@H](CO)[C@@H](O)[C@H]3O)c2n1`, the IC50 is 2.88 µM.

On to `CSc1ncnc2c1ncn2C1CCCCO1` (centres undefined), for which the IC50 is 275 µM.

The compound `Nc1ncnc2c1ncn2[C@@H]1O[C@H](COCCOCCNc2ncnc3c2ncn3[C@@H]2O[C@H](CO)[C@@H](O)[C@H]2O)[C@@H](O)[C@H]1O` showed a concentration for half-maximal inhibition (IC50) of 912 µM.

As to `OC[C@H]1O[C@@H](n2cnc3c(OCc4ccccc4)ncnc32)[C@H](O)[C@@H]1O`, the IC50 is 2.09 µM.

Consider `Cc1c(CNc2ncnc3c2ncn3[C@@H]2O[C@H](CO)[C@@H](O)[C@H]2O)cccc1[N+](=O)[O-]`, for which the IC50 was 0.427 µM.

Consider `CC(C)CSc1nc(N)nc2c1ncn2[C@@H]1O[C@H](CO)[C@@H](O)[C@H]1O`, for which the half-maximal inhibitory concentration (IC50) was 8.71 µM.

For `OC[C@H]1O[C@@H](n2ccc3c(S)ncnc32)[C@H](O)[C@@H]1O`, the IC50 is 389 µM.

Regarding `CSc1nc(N)nc2c1ncn2[C@@H]1O[C@H](CO)[C@@H](O)[C@H]1O`, the IC50 was 204 µM.

In turn, `OC[C@H]1O[C@@H](n2cnc3c(CSc4ccccc4I)ncnc32)[C@H](O)[C@@H]1O` gave a concentration for half-maximal inhibition (IC50) of 0.282 µM.
